Results published in patent US11602147B2, “Nematode control” (University of Idaho, priority 2017, dated 2023).

What was measured:
[1] = tested on: Globodera pallida eggs; experiment: Globodera pallida egg hatching assay after 2-week exposure of encysted eggs; format: in vivo
Protocol: An initial experiment was conducted to determine possible effects of S. alba seed meal on hatch of Globodera pallida eggs. Measuring the percentage egg hatch is a viability indicator and provides an indication of the potential impact from a treatment. In this experiment, Globodera pallida encysted eggs were exposed to S. alba seed meal for 2 weeks in small containers containing a sand:soil mix. The sand:soil mix without seed meal was used as the non-treated control. […] The experiment had two treatments: 1) a non-treated bare soil control; or 2) S. alba seed meal. Each treatment included 5 replicates. Eggs from each of these treatments were exposed to either PRD or SE for 2 weeks, at which time hatched infectious 2nd stage Globodera pallida juveniles (J2) were counted. The objective of this experiment was to determine if 4-hydroxybenzyl alcohol (HBA), the product of enzymatic hydrolysis of the glucosinolate sinalbin contained in S. alba seed meal, could be responsible for the observed enhanced hatch. In an experiment similar to Example 1, encysted eggs were exposed to either HBA, or S. alba seed (yellow mustard) meal. The non-treated eggs were placed in bare soil mix only. After 2 weeks, exposed eggs were placed in hatching assays in either PRD or in soil extract, and hatched J2 were counted. In this experiment, the impact of different application rates of HBA on percent Globodera pallida hatch was investigated (FIG. 13). Again, hatch of the non-treated control was higher in PRD than in soil extract. […] An increase in hatch of approximately 60% occurred with a 1 μmol/ml pre-treatment with HBA prior to PRD exposure.

[2] = pH stability of 4-hydroxybenzyl isothiocyanate in buffered aqueous solutions; format: physicochemical
Protocol: Partially purified 4-hydroxybenzyl isothiocyanate was prepared by suspending 500 grams of S. alba seed meal in 2 liters of deionized water and extracting the mixture with 500 milliliters of ethyl acetate for 24 hours. The ethyl acetate extract was separated by decanting the top organic layer after centrifugation, dried with 100 g of anhydrous sodium sulfate overnight, and concentrated under vacuum at laboratory temperature. The crude 4-hydroxybenzyl isothiocyanate extract was further purified by preparative column chromatography on silica gel (500 grams). […] Content of 4-hydroxybenzyl isothiocyanate within the fractions was verified by GC-MS using instrumentation and conditions as described previously. Fractions containing 4-hydroxybenzyl isothiocyanate were combined and concentrated under vacuum at laboratory temperature producing a yellowish, viscous fluid displaying only 4-hydroxybenzyl isothiocyanate and pentane/methylene chloride solvent peaks in the GC chromatogram. No further concentration of 4-hydroxybenzyl isothiocyanate was achieved using vacuum distillation because of its instability.
Actual pH values of the buffers of 3.03, 3.52, 4.02, 4.49, 5.00, 5.46, 5.91, and 6.52 were verified using an Orion model 420A pH meter (Orion Research, Boston). […]

[3] = tested on: cotton; details: solutions sprayed directly on vegetative growth; cited from earlier work
[4] = tested on: wheat; details: effect no longer observed at 69 days post application; cited from earlier work
[5] = tested on: vegetative cover / weeds; details: cited from earlier work

## OCc1ccc(O)cc1 [HBA, 4-hydroxybenzyl alcohol]
[1]; 1 μmol/ml pre-treatment with HBA prior to PRD exposure
  increase in hatch: approximately 60%
[1]; 1 μmol/ml versus 2, 4, 8 μmol/ml
  hatch enhancement, comparison of application rates: enhanced hatch of Globodera pallida more effectively than higher rates tested
[1]; 2-week exposure in soil mix, then hatched in potato root diffusate (PRD)
  increase in Globodera pallida egg hatch compared to non-treated control: 50%

## Oc1ccc(CN=C=S)cc1 [4-hydroxybenzyl isothiocyanate]
[2]; 0.1 M sodium citrate/citric acid buffer (aqueous), pH 7.0 (overview text)
  half-life at 0.1 % v/v (partially purified extract in buffer): < 5 min
[2]; aqueous media
  stability in aqueous media: unstable

## N#CS [SCN^−, ionic thiocyanate]
[3]
  rate at which cotton defoliation was possible: 8.6 kilograms SCN^−/ha
[4]
  application rate causing inhibition of wheat germination: 342 kilograms SCN^−/ha
[5]; for 4 months
  rate necessary for complete plant kill: 1,366 kg SCN^−/ha
[5]; in vivo
  rate removing a large percentage of the weeds: 137 kilograms SCN^−/ha
